This note sets out measurements from US20260176319A1, “PEPTIDE ANALOGS AND METHODS OF USING THE SAME” (Kallyope, Inc., priority 2024, published 2026).

Values after ≈ are worked out from the molar mass of the structure shown. Where two headings read alike, the source gives them in different places. Starred links: 1 amine or outer side, 2 acyl side, 3 side chain; linkers in the order of their positions; H or OH if unused. Non-standard residues stand in square brackets, D forms with d. Residues, ends and D or L forms follow the SMILES beside them. *: point of attachment. Trp(7-Me) = Cc1cccc2c(C[C@H](N)C(=O)O)c[nH]c12; C20 diacid = O=C(O)CCCCCCCCCCCCCCCCCCC(=O)*; γGlu = O=C(O)[C@H](CCC(=O)[*:2])N[*:1]; NMeH = CN[C@@H](Cc1c[nH]cn1)C(=O)O; Nle = CCCC[C@H](N)C(=O)O; β3hA = C[C@H](N)CC(=O)O; AEEA = NCCOCCOCC(=O)O; βAla = NCCC(=O)O

Data set [1] is described as follows: Food intake and body weight after subcutaneous administration in mice, 16 hours (Example A-2b). In kind it is in vivo. The settings on record: male C57BL/6J mice, single subcutaneous dose, peptide 500 nmol/kg, high fat diet. An excerpt: Male C57BL/6J mice, approximately 10 weeks old (Jackson Laboratory), were group housed in a 12-h light cycle room (6:00 AM on, 6:00 PM off) upon arrival and acclimated to the facility for a minimum of 1 week prior to the study. Animals were provided standard rodent chow (PicoLab Rodent Diet, 5053) ad libitum. Animals were single caged for a minimum of 3 days prior to the study. During the period prior to the study day, mice were exposed to one pellet of high fat diet (Research Diets D12492i) to avoid any effects of novelty in the study. On three separate days during this run-in period, mice were given one dose of phosphate-buffered saline (PBS; 5 mL/kg) by subcutaneous injection to acclimate them to the procedure. For baseline measures, pre-weighed meals of standard rodent chow were provided to each animal following acclimation dosing at 3:30 PM, and body weight was recorded. The next morning at 9:30 AM, food intake and body weight measurements were recorded at 16 hours following the presentation of the pre-weighed meal. These measurements and the resulting body weight changes were then used to assign mice to balanced cohorts. On the day of the study, mice were weighed and given a subcutaneous dose of either vehicle (PBS, 5 mL/kg; pH 5.0-8.5) or a peptide of the disclosure (500 nmol/kg; pH 5.0-8.5). Following dosing, a pre-weighed high fat diet was provided. Food intake and body weight measurements were taken at 16 hours following the provision of the pre-weighed high fat diet. […] Table 6 below describes the percent reduction in food intake and the percent body weight (BW) change with peptides as measured relative to the vehicle group.

The nature of data set [2]: Pharmacokinetics after intravenous peptide administration in mice. Details: species or system C57BL/6 mice. The settings on record: in vivo. As for the experimental part: GPR-10 and peptides were dosed IV at 2 mg/kg as a formulation of 0.4 mg/mL in […]+65% water (pH 6-7).
The nature of a further data set: physchem. Type of data set: physicochemical. As to conditions: pH 8. As for the experimental part:
Solubility was measured in an appropriate buffer as follows. A known amount of compound, e.g., 20 mg, was placed in a vessel equipped with a stirring bar. A measured amount of buffer (e.g., 200-400 μL of 200 mM phosphate buffer) was added, and in some cases, additional surfactants, e.g., polysorbate 80 (PS80), polyethylene glycol (15)-hydroxystearate (Solutol® HS15), etc., were added. A measured amount of purified water (e.g., 1.6 mL) was added, and the pH was adjusted to the desired pH, e.g., pH 8, by addition of 0.5 N aqueous NaOH or 0.5 N aqueous HCl. The volume of added acid or base was recorded. The mixture was stirred at 300 rpm for 10 min. Additional purified water was added to reach a given volume, e.g., 4 mL, of solution. After stirring the sample at 300 rpm at room temperature for 1 h or 24 h, the appearance was observed and the pH measured.

A further data set addresses T1, human GRP receptors (Homo sapiens, UniProt P30550).
T1 construct: host or cells: U2OS
As to the kind of experiment: IP1 GRPR activity: HTRF IP1-Gq assay in U2OS cells stably expressing human GRP receptors. Type of data set: cell-based. As to conditions: 90 minutes incubation, read-out: hIP1 GRPR EC50. As for the experimental part: U2OS cells stably expressing human GRP receptors (DiscoverX, #93-0229C3) were cultured according to manufacturer's instructions. Cells were cultured to […], then collected using AccuTase (Innovative Cell Technologies, #AT104). Cells were washed and plated on a poly-D-lysine-coated 384-well plate (ThermoFisher, #A3890401) at a density of 2,500 cells/well in […] assay buffer (AssayComplete Cell Plating 5 Reagent, DiscoverX #93-0563R5), then incubated overnight at 37° C. and 5% C02. The following morning, a homogenous time-resolved fluorescence (HTRF) assay was performed in a 384-well plate format using the IP1-Gq assay kit (Cisbio, 62IPAPEB). Test compounds were made as a stock in DMSO, then serially diluted to generate 10-point dose response curves in IP1 stimulation buffer. Five microliters of the prepared compounds were then added to the plate containing cells and assay buffer in duplicate, and the cells were incubated at 37° C. and 5% CO2 for 90 minutes. Following compound incubation, […] of IP1 lysis/detection buffer (prepared according to manufacturer's instructions) was added to each well, and the plates were incubated at room temperature for 1 hour. HTRF signals were measured using a plate reader (ClarioSTAR), calculating the ratio between emissions at 665 nm and 620 nm (HTRF ratio). HTRF ratio for positive (Max, […]; SEQ ID NO. 45) and negative (Min, DMSO) controls were used to normalize HTRF data and generate values for % activity. EC50 and Max activity values were determined using a standard 4-parameter fit using GraphPad Prism.

Where [3] appears, read: mouse, C57BL/6 mice, IV 2 mg/kg, formulation of 0.4 mg/mL, read-out: CL.
The mark [4] stands for this setting: mouse, C57BL/6 mice, IV 2 mg/kg, formulation of 0.4 mg/mL, read-out: T1/2 (converted).

T1 sequence (P30550 whole entry): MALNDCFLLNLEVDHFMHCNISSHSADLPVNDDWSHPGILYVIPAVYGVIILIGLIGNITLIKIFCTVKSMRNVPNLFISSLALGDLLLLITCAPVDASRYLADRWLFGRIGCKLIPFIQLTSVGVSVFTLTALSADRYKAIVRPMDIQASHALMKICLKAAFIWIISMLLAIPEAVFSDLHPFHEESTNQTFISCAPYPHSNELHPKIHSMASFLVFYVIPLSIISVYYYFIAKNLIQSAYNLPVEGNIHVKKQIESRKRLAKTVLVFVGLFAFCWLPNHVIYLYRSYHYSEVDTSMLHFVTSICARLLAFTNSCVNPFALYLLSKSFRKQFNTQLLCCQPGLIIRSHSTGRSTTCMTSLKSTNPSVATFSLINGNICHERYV

On to `CCCC[C@H](NC(=O)[C@H](CC(C)C)NC(=O)[C@H](Cc1c[nH]cn1)NC(=O)CCNC(=O)[C@@H](NC(=O)[C@H](C)NC(=O)[C@H](Cc1c[nH]c2ccccc12)NC(=O)[C@H](Cc1c[nH]cn1)NC(=O)[C@H](CCC(N)=O)NC(=O)CNC(=O)COCCOCCNC(=O)COCCOCCNC(=O)CC[C@H](NC(=O)CCCCCCCCCCCCCCCCCCC(=O)O)C(=O)O)C(C)C)C(N)=O` [Peptide 241, Eicosanedioyl-γGlu-OEG-OEG-Gly-Gln-His-Trp-Ala-Val-β-Ala-His-Leu-Nle-NH2] ({C20 diacid-γGlu-AEEA-AEEA}-GQHWAV[βAla]HL[Nle]-NH2), for which, in data set [1], the “% Body Weight Change at 16 hours (compared with vehicle)” value (shortened to “% Body Weight Change at 16 hours”) is −10% and the “% Reduction in Cumulative Food Intake over 16 hours (compared with vehicle)” value (shortened to “% Reduction in Cumulative Food Intake”) is 74%. Besides, the clearance in data set [2] (setting [3]) stood at 0.23 mL/min/kg. Further, the half-life in data set [2] (setting [4]) is 7 h.

As to `CCCC[C@H](NC(=O)[C@H](CC(C)C)NC(=O)[C@H](Cc1c[nH]cn1)NC(=O)CCNC(=O)[C@@H](NC(=O)[C@H](C)NC(=O)[C@H](Cc1c[nH]c2c(C)cccc12)NC(=O)[C@H](Cc1c[nH]cn1)NC(=O)[C@H](CCCNC(=N)N)NC(=O)CNC(=O)COCCOCCNC(=O)COCCOCCNC(=O)CC[C@H](NC(=O)CCCCCCCCCCCCCCCCCCC(=O)O)C(=O)O)C(C)C)C(N)=O` [Peptide 242, Eicosanedioyl-γGlu-OEG-OEG-Gly-Arg-His-7MethylTrp-Ala-Val-β-Ala-His-Leu-Nle-NH2] ({C20 diacid-γGlu-AEEA-AEEA}-GRH[Trp(7-Me)]AV[βAla]HL[Nle]-NH2), in data set [1], the “% Body Weight Change at 16 hours” value was −9% and the “% Reduction in Cumulative Food Intake” value came out at 55%.

A word on the solubility: it is the dissolved amount per volume that the medium holds. Low values mean little dissolved substance, high ones much dissolved substance. The EC50 is the concentration giving half of the maximal effect. On to `CCCC[C@H](NC(=O)[C@H](CC(C)C)NC(=O)[C@H](Cc1c[nH]cn1)NC(=O)C[C@H](C)NC(=O)[C@@H](NC(=O)[C@H](C)NC(=O)[C@H](Cc1c[nH]c2c(C)cccc12)NC(=O)[C@H](Cc1c[nH]cn1)NC(=O)[C@H](CCC(=O)O)NC(=O)CNC(=O)COCCOCCNC(=O)COCCOCCNC(=O)CC[C@H](NC(=O)CC[C@H](NC(=O)CCCCCCCCCCCCCCCCCCC(=O)O)C(=O)O)C(=O)O)C(C)C)C(N)=O` [Peptide 247, Eicosanedioyl-γGlu-γGlu-OEG-OEG-Gly-Glu-His-7MeTrp-Ala-Val-BABA-His-Leu-Nle-NH2] ({C20 diacid-γGlu-γGlu-AEEA-AEEA}-GEH[Trp(7-Me)]AV[β3hA]HL[Nle]-NH2), for which, in data set [1], the “% Body Weight Change at 16 hours” value was −11% and the “% Reduction in Cumulative Food Intake” value is 65%. In addition, in data set [2] (C57BL/6, mouse, iv, 2 mg/kg), the clearance was found to be 0.18 mL/min/kg and the half-life is 7.5 h. The solubility at 24 h in the data set “physchem” is 4200 µg/mL (≈ 2070 µM). The EC50 on human GRP receptors amounted to 1.8 nM.

Turning to `CCCC[C@H](NC(=O)[C@H](CC(C)C)NC(=O)[C@H](Cc1c[nH]cn1)NC(=O)CCNC(=O)[C@@H](NC(=O)[C@H](C)NC(=O)[C@H](Cc1c[nH]c2c(C)cccc12)NC(=O)[C@H](Cc1c[nH]cn1)NC(=O)[C@H](CCC(=O)O)NC(=O)[C@@H](CO)NC(=O)[C@H](CCC(=O)O)NC(=O)COCCOCCNC(=O)COCCOCCNC(=O)CC[C@H](NC(=O)CC[C@H](NC(=O)CCCCCCCCCCCCCCCCCCC(=O)O)C(=O)O)C(=O)O)C(C)C)C(N)=O` [Peptide 248, Eicosanedioyl-γGlu-γGlu-OEG-OEG-Glu-D-Ser-Glu-His-7MeTrp-Ala-Val-β-Ala-His-Leu-Nle-NH2] ({C20 diacid-γGlu-γGlu-AEEA-AEEA}-E[dS]EH[Trp(7-Me)]AV[βAla]HL[Nle]-NH2), in data set [1], the “% Body Weight Change at 16 hours” value is −9% and the “% Reduction in Cumulative Food Intake” value was 54%. Moreover, in data set [2] (setting [3]), the clearance came out at 0.12 mL/min/kg. Further, the half-life in data set [2] (setting [4]) was 9.7 h.

Turning to `CCCC[C@H](NC(=O)[C@H](CC(C)C)NC(=O)[C@H](Cc1c[nH]cn1)NC(=O)CCNC(=O)[C@@H](NC(=O)[C@H](C)NC(=O)[C@H](Cc1c[nH]c2c(C)cccc12)NC(=O)[C@H](Cc1c[nH]cn1)NC(=O)[C@H](CCC(=O)O)NC(=O)CNC(=O)[C@H](CO)NC(=O)COCCOCCNC(=O)COCCOCCNC(=O)CC[C@H](NC(=O)CC[C@H](NC(=O)CCCCCCCCCCCCCCCCCCC(=O)O)C(=O)O)C(=O)O)C(C)C)C(N)=O` [Peptide 255, Eicosanedioyl-γGlu-Glu-OEG-OEG-Ser-Gly-Glu-His-7MeTrp-Ala-Val-β-Ala-His-Leu-Nle-NH2] ({C20 diacid-γGlu-γGlu-AEEA-AEEA}-SGEH[Trp(7-Me)]AV[βAla]HL[Nle]-NH2), in data set [2] (setting [3]), the clearance came to 0.09 mL/min/kg. The half-life in data set [2] (setting [4]) is 9.4 h. The EC50 on human GRP receptors amounted to 6.9 nM.

In the case of `CCCC[C@H](NC(=O)[C@H](CC(C)C)NC(=O)[C@H](Cc1c[nH]cn1)N(C)C(=O)C[C@H](C)NC(=O)[C@@H](NC(=O)[C@H](C)NC(=O)[C@H](Cc1c[nH]c2c(C)cccc12)NC(=O)[C@H](Cc1c[nH]cn1)NC(=O)[C@H](CCC(=O)O)NC(=O)[C@H](CO)NC(=O)COCCOCCNC(=O)COCCOCCNC(=O)CC[C@H](NC(=O)CC[C@H](NC(=O)CCCCCCCCCCCCCCCCCCC(=O)O)C(=O)O)C(=O)O)C(C)C)C(N)=O` [Peptide 277, Eicosanedioyl-γGlu-γGlu-OEG-OEG-Ser-Glu-His-7MeTrp-Ala-Val-BABA-NMeHis-Leu-Nle-NH2] ({C20 diacid-γGlu-γGlu-AEEA-AEEA}-SEH[Trp(7-Me)]AV[β3hA][NMeH]L[Nle]-NH2), in data set [1], the “% Body Weight Change at 16 hours” value is recorded as −12% and the “% Reduction in Cumulative Food Intake” value is 69%.

For the molecule `CCCC[C@H](NC(=O)[C@H](CC(C)C)NC(=O)[C@H](Cc1c[nH]cn1)N(C)C(=O)C[C@H](C)NC(=O)[C@@H](NC(=O)[C@H](C)NC(=O)[C@H](Cc1c[nH]c2c(C)cccc12)NC(=O)[C@H](Cc1c[nH]cn1)NC(=O)[C@H](CC(=O)O)NC(=O)CNC(=O)COCCOCCNC(=O)COCCOCCNC(=O)CC[C@H](NC(=O)CC[C@H](NC(=O)CCCCCCCCCCCCCCCCCCC(=O)O)C(=O)O)C(=O)O)C(C)C)C(N)=O` [Peptide 278, Eicosanedioyl-γGlu-γGlu-OEG-OEG-Gly-Asp-His-7MeTrp-Ala-Val-BABA-NMeHis-Leu-Nle-NH2] ({C20 diacid-γGlu-γGlu-AEEA-AEEA}-GDH[Trp(7-Me)]AV[β3hA][NMeH]L[Nle]-NH2), in data set [1], the “% Body Weight Change at 16 hours” value is given as −12% and the “% Reduction in Cumulative Food Intake” value is reported as 63%. Also, on human GRP receptors, the 50% effective concentration (EC50) was 10.8 nM.
